Results taken from PubChem BioAssay AID2060890 (Molecular Pharmacology Branch, DTP, NCI, 2025).

Test system: LG0703-F948-PDC complex spheroid viability
Assay: Anticancer human tumor LG0703-F948-PDC patient-derived lung adenocarcinoma cell line growth inhibition [RAS]
Settings: for IC50: curve of first compound; for viability, T/C: stronger effect = lower value
Method in brief: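 Agents were tested in combination matrices in half-log decrements from a top concentration at or near clinical Cmax (10 microM if undetermined). Targets were multi-cell spheroids of tumour lines plus HUVEC and MSC stromal cells.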

[1] = second compound 0.0316 µM, first compound 0.0316 µM
[2] = second compound 0.0316 µM, first compound 0.1 µM
[3] = second compound 0.0316 µM, first compound 0.316 µM
[4] = second compound 0.0316 µM, first compound 1 µM
[5] = second compound 0.0316 µM, first compound 3.16 µM
[6] = second compound 0.0316 µM, first compound 10 µM
[7] = second compound 0.1 µM, first compound 0.0316 µM
[8] = second compound 0.1 µM, first compound 0.1 µM
[9] = second compound 0.1 µM, first compound 0.316 µM
[10] = second compound 0.1 µM, first compound 1 µM
[11] = second compound 0.1 µM, first compound 3.16 µM
[12] = second compound 0.1 µM, first compound 10 µM
[13] = second compound 0.316 µM, first compound 0.0316 µM
[14] = second compound 0.316 µM, first compound 0.1 µM
[15] = second compound 0.316 µM, first compound 0.316 µM
[16] = second compound 0.316 µM, first compound 1 µM
[17] = second compound 0.316 µM, first compound 3.16 µM
[18] = second compound 0.316 µM, first compound 10 µM
[19] = second compound 1 µM, first compound 0.0316 µM
[20] = second compound 1 µM, first compound 0.1 µM
[21] = second compound 1 µM, first compound 0.316 µM
[22] = second compound 1 µM, first compound 1 µM
[23] = second compound 1 µM, first compound 3.16 µM
[24] = second compound 1 µM, first compound 10 µM
[25] = second compound 3.16 µM, first compound 0.0316 µM
[26] = second compound 3.16 µM, first compound 0.1 µM
[27] = second compound 3.16 µM, first compound 0.316 µM
[28] = second compound 3.16 µM, first compound 1 µM
[29] = second compound 3.16 µM, first compound 3.16 µM
[30] = second compound 3.16 µM, first compound 10 µM
[31] = second compound 10 µM, first compound 0.0316 µM
[32] = second compound 10 µM, first compound 0.1 µM
[33] = second compound 10 µM, first compound 0.316 µM
[34] = second compound 10 µM, first compound 1 µM
[35] = second compound 10 µM, first compound 3.16 µM
[36] = second compound 10 µM, first compound 10 µM
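Note: spheroids exposed to agents for 7 days.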
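Throughout, for viability, T/C: 100% = DMSO vehicle wells.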

Work on `CC(C)NCC(C(=O)N1CCN(c2ncnc3c2C(C)CC3O)CC1)c1ccc(Cl)cc1` (stereo unspecified) + CCn1c(-c2cccnc2C(C)OC)c2c3cc(ccc31)N1CCOC(CC(NC(=O)C(C(C)C)N(C)C(=O)C3(F)CCN(C(=O)C#CC(C)(C)N(C)C)CC3)C(=O)N3CCCC(N3)C(=O)OCC(C)(C)C2)C1 yielded an IC50 (second compound 0.000949 µM) of 1800 nM, an IC50 (second compound 0.003 µM) of 2750 nM and an IC50 (second compound 0.00949 µM) of 858 nM. It also gave an IC50 (second compound 0.03 µM) of 1420 nM, an IC50 (second compound 0.0949 µM) of 511 nM and an IC50 (second compound 0.3 µM) of less than 31.6 nM. For the same molecule, the viability, T/C (second compound 0.000949 µM, first compound 0.0316 µM) was 103%, the viability, T/C (second compound 0.000949 µM, first compound 0.1 µM) was 86% and the viability, T/C (second compound 0.000949 µM, first compound 0.316 µM) was 73.6%. For the same molecule, the viability, T/C (second compound 0.000949 µM, first compound 1 µM) was 51.9%, the viability, T/C (second compound 0.000949 µM, first compound 3.16 µM) was 47.4% and the viability, T/C (second compound 0.000949 µM, first compound 10 µM) was 35.6%. For the same molecule, the viability, T/C (second compound 0.003 µM, first compound 0.0316 µM) was 104%, the viability, T/C (second compound 0.003 µM, first compound 0.1 µM) was 79.8% and the viability, T/C (second compound 0.003 µM, first compound 0.316 µM) was 77.9%. The viability, T/C (second compound 0.003 µM, first compound 1 µM) was 56.3%, the viability, T/C (second compound 0.003 µM, first compound 3.16 µM) was 50.8% and the viability, T/C (second compound 0.003 µM, first compound 10 µM) was 38.4%. The viability, T/C (second compound 0.00949 µM, first compound 0.0316 µM) was 100%, the viability, T/C (second compound 0.00949 µM, first compound 0.1 µM) was 98% and the viability, T/C (second compound 0.00949 µM, first compound 0.316 µM) was 65.5%. It also gave a viability, T/C (second compound 0.00949 µM, first compound 1 µM) of 49%, a viability, T/C (second compound 0.00949 µM, first compound 3.16 µM) of 52.5% and a viability, T/C (second compound 0.00949 µM, first compound 10 µM) of 39.3%. The viability, T/C (second compound 0.03 µM, first compound 0.0316 µM) was 99.3%, the viability, T/C (second compound 0.03 µM, first compound 0.1 µM) was 86.4% and the viability, T/C (second compound 0.03 µM, first compound 0.316 µM) was 67.9%. For the same molecule, the viability, T/C (second compound 0.03 µM, first compound 1 µM) was 53.3%, the viability, T/C (second compound 0.03 µM, first compound 3.16 µM) was 43.1% and the viability, T/C (second compound 0.03 µM, first compound 10 µM) was 35.1%. The viability, T/C (second compound 0.0949 µM, first compound 0.0316 µM) was 74.8%, the viability, T/C (second compound 0.0949 µM, first compound 0.1 µM) was 66% and the viability, T/C (second compound 0.0949 µM, first compound 0.316 µM) was 51.3%. The viability, T/C (second compound 0.0949 µM, first compound 1 µM) was 42.4%, the viability, T/C (second compound 0.0949 µM, first compound 3.16 µM) was 42.5% and the viability, T/C (second compound 0.0949 µM, first compound 10 µM) was 28.9%. It also gave a viability, T/C (second compound 0.3 µM, first compound 0.0316 µM) of 46.8%, a viability, T/C (second compound 0.3 µM, first compound 0.1 µM) of 38.6% and a viability, T/C (second compound 0.3 µM, first compound 0.316 µM) of 33.6%. For the same molecule, the viability, T/C (second compound 0.3 µM, first compound 1 µM) was 23.8%, the viability, T/C (second compound 0.3 µM, first compound 3.16 µM) was 27.4% and the viability, T/C (second compound 0.3 µM, first compound 10 µM) was 15.5%.

`NC1c2ccccc2OC12CCN(c1cnc3c(N4CCCc5ncccc54)n[nH]c3n1)CC2` (stereo unspecified) + C#Cc1c(F)ccc2cc(O)cc(-c3ncc4c(N5CC6CCC(C5)N6)nc(OCC56CCCN5CC(F)C6)nc4c3F)c12 showed an IC50 (second compound 0.0316 µM) of 43.3 nM, an IC50 (second compound 0.1 µM) of less than 31.6 nM and an IC50 (second compound 0.316 µM) of less than 31.6 nM. For the same molecule, the IC50 (second compound 1 µM) was less than 31.6 nM, the IC50 (second compound 3.16 µM) was less than 31.6 nM and the IC50 (second compound 10 µM) was less than 31.6 nM. It also gave a viability, T/C [1] of 56.9%, a viability, T/C [2] of 32.3% and a viability, T/C [3] of 14.9%. It also gave a viability, T/C [4] of 16.3%, a viability, T/C [5] of 5.44% and a viability, T/C [6] of 2.29%. The viability, T/C [7] was 48.8%, the viability, T/C [8] was 27.7% and the viability, T/C [9] was 16.5%. For the same molecule, the viability, T/C [10] was 8.26%, the viability, T/C [11] was 4.2% and the viability, T/C [12] was 2.16%. For the same molecule, the viability, T/C [13] was 43.7%, the viability, T/C [14] was 30.5% and the viability, T/C [15] was 14.4%. It also gave a viability, T/C [16] of 6.72%, a viability, T/C [17] of 4.41% and a viability, T/C [18] of 2.49%. For the same molecule, the viability, T/C [19] was 28.2%, the viability, T/C [20] was 21.9% and the viability, T/C [21] was 9.98%. The viability, T/C [22] was 6.62%, the viability, T/C [23] was 3.17% and the viability, T/C [24] was 1.84%. It also gave a viability, T/C [25] of 28.2%, a viability, T/C [26] of 15.1% and a viability, T/C [27] of 11.1%. The viability, T/C [28] was 6.14%, the viability, T/C [29] was 4.26% and the viability, T/C [30] was 1.29%. For the same molecule, the viability, T/C [31] was 21%, the viability, T/C [32] was 13.5% and the viability, T/C [33] was 5.38%. The viability, T/C [34] was 2.35%, the viability, T/C [35] was 2.25% and the viability, T/C [36] was 0.66%.

`CCC(CC)c1cc(NC2CCC(N)C2)n2nccc2n1` (stereo unspecified) + C#Cc1c(F)ccc2cc(O)cc(-c3ncc4c(N5CC6CCC(C5)N6)nc(OCC56CCCN5CC(F)C6)nc4c3F)c12 showed an IC50 (second compound 0.0316 µM) of 1150 nM, an IC50 (second compound 0.1 µM) of 1120 nM and an IC50 (second compound 0.316 µM) of 1350 nM. It also gave an IC50 (second compound 1 µM) of 936 nM, an IC50 (second compound 3.16 µM) of 456 nM and an IC50 (second compound 10 µM) of 35.1 nM. It also gave a viability, T/C [1] of 95%, a viability, T/C [2] of 80.1% and a viability, T/C [3] of 83.9%. For the same molecule, the viability, T/C [4] was 56.7%, the viability, T/C [5] was 2.63% and the viability, T/C [6] was 0.05%. It also gave a viability, T/C [7] of 97.5%, a viability, T/C [8] of 80.8% and a viability, T/C [9] of 87.7%. The viability, T/C [10] was 55.1%, the viability, T/C [11] was 2.53% and the viability, T/C [12] was 0.22%. It also gave a viability, T/C [13] of 81.2%, a viability, T/C [14] of 68% and a viability, T/C [15] of 73.4%. It also gave a viability, T/C [16] of 66.5%, a viability, T/C [17] of 3.15% and a viability, T/C [18] of 0.1%. It also gave a viability, T/C [19] of 73.4%, a viability, T/C [20] of 69.8% and a viability, T/C [21] of 65.1%. The viability, T/C [22] was 49.3%, the viability, T/C [23] was 2.65% and the viability, T/C [24] was 0.06%. For the same molecule, the viability, T/C [25] was 64%, the viability, T/C [26] was 55.3% and the viability, T/C [27] was 56.7%. For the same molecule, the viability, T/C [28] was 33.8%, the viability, T/C [29] was 1.79% and the viability, T/C [30] was 0.56%. The viability, T/C [31] was 45%, the viability, T/C [32] was 56% and the viability, T/C [33] was 31.7%. For the same molecule, the viability, T/C [34] was 19%, the viability, T/C [35] was 0.77% and the viability, T/C [36] was 0.53%.
